Measured values from US20230085307A1, “PYRIDAZINONE COMPOUND AND HERBICIDE” (NISSAN CHEMICAL CORPORATION, priority 2019, published 2023).

What was measured:
[1] = tested on: rice flat sedge; test: Test Example 3: herbicidal effect by foliage application, Wagner pot (Table 18, symbol E); assay type: in vivo, rice flat sedge (Cyperus iria)
Procedure, shortened: (§1)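 Plants were sown in alluvial soil held under 0.1–0.5 cm standing water and grown 14 days in a greenhouse at 25–30 °C. An emulsifiable formulation, water-diluted to the set dose, was then sprayed onto the foliage, and effects were scored three weeks later using previously defined criteria.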

[2] = tested on: barnyard grass; test: Test Example 3: herbicidal effect by foliage application, Wagner pot (Table 18, symbol H); assay type: in vivo, barnyard grass (Echinochloa crus-galli)
Procedure, shortened: as §1

[3] = tested on: Chinese sprangletop; test: Test Example 3: herbicidal effect by foliage application, Wagner pot (Table 18, symbol D); assay type: in vivo, chinese sprangletop (Leptochloa chinensis)
Procedure, shortened: as §1

[4] = tested on: green foxtail; test: Test Example 5: herbicidal effect by foliage application, plastic box (Table 20, symbol G); assay type: in vivo, green foxtail (Setaria viridis); details: foliage application, 320 g/ha, three weeks after application
Procedure, shortened: (§2)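 Plants were sown into sterilized diluvial soil under about 1.5 cm cover and kept in a greenhouse at 25° C. to 30° C. Fourteen days on, foliage received an even spray of the diluted emulsion. Herbicidal or crop effect was judged three weeks afterwards.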

[5] = tested on: windgrass; test: Test Example 5: herbicidal effect by foliage application, plastic box (Table 20, symbol L); assay type: in vivo, windgrass (Apera spica-venti); details: foliage application, 320 g/ha, three weeks after application
Procedure, shortened: as §2

[6] = tested on: Japanese bulrush; test: Test Example 1: herbicidal activity, application before weed generation under submerged conditions (Table 16, symbol B); assay type: in vivo, Japanese bulrush (Schoenoplectus juncoides); details: amount of applied herbicide 320 g/ha
Procedure, shortened: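 Emulsion formulation, water-diluted to set dose, was put onto the flooded surface (4 cm depth, alluvial soil) the same day weeds were sown and 2.5-leaf rice transplanted. After 3 weeks at 25-30 °C under glass, each species was rated 0 (≤5% kill) to 5 (≥90% kill).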

[7] = tested on: barnyard grass; test: Test Example 5: herbicidal effect by foliage application, plastic box (Table 20, symbol H); assay type: in vivo, barnyard grass (Echinochloa crus-galli); details: foliage application, 320 g/ha, three weeks after application
Procedure, shortened: as §2

[8] = tested on: velvetleaf; test: Test Example 5: herbicidal effect by foliage application, plastic box (Table 20, symbol M); assay type: in vivo, velvetleaf (Abutilon theophrasti); details: foliage application, 320 g/ha, three weeks after application
Procedure, shortened: as §2

[9] = tested on: blackgrass; test: Test Example 5: herbicidal effect by foliage application, plastic box (Table 20, symbol J); assay type: in vivo, blackgrass (Alopecurus myosuroides); details: foliage application, 320 g/ha, three weeks after application
Procedure, shortened: as §2

[10] = tested on: persian speedwell; test: Test Example 5: herbicidal effect by foliage application, plastic box (Table 20, symbol R); assay type: in vivo, Persian speedwell (Veronica persica); details: foliage application, 320 g/ha, three weeks after application
Procedure, shortened: as §2

[11] = tested on: Italian ryegrass; test: Test Example 5: herbicidal effect by foliage application, plastic box (Table 20, symbol K); assay type: in vivo, Italian ryegrass (Lolium multiflorum); details: foliage application, 320 g/ha, three weeks after application
Procedure, shortened: as §2

[12] = tested on: lambsquarters; test: Test Example 5: herbicidal effect by foliage application, plastic box (Table 20, symbol O); assay type: in vivo, lambsquarters (Chenopodium album); details: foliage application, 320 g/ha, three weeks after application
Procedure, shortened: as §2

[13] = tested on: oval-leafed pondweed; test: Test Example 1: herbicidal activity, application before weed generation under submerged conditions (Table 16, symbol C); assay type: in vivo, oval-leafed pondweed (Monochoria vaginalis); details: amount of applied herbicide 320 g/ha
From the text: (§3) [Test Example 1] Herbicidal Activity Test by Application before Weed Generation under Submerged Conditions After alluvial soil was placed into 1/10000 are of Wagner pot, water was poured and mixed to form a submerged condition having a water depth of 4 cm. Seeds of late watergrass, Japanese bulrush, and oval-leafed pondweed were sowed in a mixed manner in the aforementioned pot, and then 2.5 leaf stage rice plant seedlings were transplanted thereto. On the day of sowing seeds, the emulsion agent of the compound of the present invention prepared according to Formulation Example 2 was diluted with water so as to achieve a predetermined herbicide amount, and the diluted emulsion agent was applied to the surface of the water. The pot was placed in a greenhouse at 25° C. to 30° C. for growth of the plants. Three weeks after the herbicide application, the effect of the herbicide on each plant was evaluated according to the following criteria. Evaluation Criteria 5: Herbicidal rate of 90% or more (almost completely withered) 4: Herbicidal rate of 70% or more and less than 90% 3: Herbicidal rate of 40% or more and less than 70% 2: Herbicidal rate of 20% or more and less than 40% 1: Herbicidal rate of 5% or more and less than 20% 0: Herbicidal rate of 5% or less (almost no effect)

[14] = tested on: late watergrass; test: Test Example 1: herbicidal activity, application before weed generation under submerged conditions (Table 16, symbol A); assay type: in vivo, late watergrass (Echinochloa oryzicola); details: amount of applied herbicide 320 g/ha
From the text: as §3

[15] = tested on: southern crabgrass; test: Test Example 5: herbicidal effect by foliage application, plastic box (Table 20, symbol F); assay type: in vivo, southern crabgrass (Digitaria ciliaris); details: foliage application, 320 g/ha, three weeks after application
Procedure, shortened: as §2

[16] = tested on: wild oat; test: Test Example 5: herbicidal effect by foliage application, plastic box (Table 20, symbol I); assay type: in vivo, wild oat (Avena fatua); details: foliage application, 320 g/ha, three weeks after application
Procedure, shortened: as §2

[17] = amount of applied herbicide 320 g/ha

CCCC(=O)Oc1c(C)nn(C)c(=O)c1-c1c(-c2ccc(C(F)(F)F)cc2)sc2cc(C)c(C)cc12 [5-097]
herbicidal effect on rice flat sedge (E) ([1]; 320 g/ha): 1 (Herbicidal rate of 5% or more and less than 20%) | herbicidal effect on barnyard grass (H) ([2]; 320 g/ha): 4 (Herbicidal rate of 70% or more and less than 90%) | herbicidal effect on Chinese sprangletop (D) ([3]; 320 g/ha): 2 (Herbicidal rate of 20% or more and less than 40%) | herbicidal effect on green foxtail (G) [4]: 0 (Herbicidal rate of 5% or less (almost no effect)) | herbicidal effect on windgrass (L) [5]: 0 (Herbicidal rate of 5% or less (almost no effect)) | Herbicidal effect, B: Japanese bulrush [6]: 0 (Herbicidal rate of 5% or less (almost no effect)) | herbicidal effect on barnyard grass (H) [7]: 0 (Herbicidal rate of 5% or less (almost no effect)) | herbicidal effect on velvetleaf (M) [8]: 0 (Herbicidal rate of 5% or less (almost no effect)) | herbicidal effect on blackgrass (J) [9]: 0 (Herbicidal rate of 5% or less (almost no effect)) | herbicidal effect on persian speedwell (R) [10]: 0 (Herbicidal rate of 5% or less (almost no effect)) | herbicidal effect on Italian ryegrass (K) [11]: 0 (Herbicidal rate of 5% or less (almost no effect)) | herbicidal effect on lambsquarters (O) [12]: 0 (Herbicidal rate of 5% or less (almost no effect)) | Herbicidal effect, C: oval-leafed pondweed [13]: 0 (Herbicidal rate of 5% or less (almost no effect)) | Herbicidal effect, A: late watergrass [14]: 3 (Herbicidal rate of 40% or more and less than 70%) | herbicidal effect on southern crabgrass (F) [15]: 0 (Herbicidal rate of 5% or less (almost no effect)) | herbicidal effect on wild oat (I) [16]: 0 (Herbicidal rate of 5% or less (almost no effect))

Cc1cc2sc(-c3ccc(OC(F)F)cc3)c(-c3c(O)c(C)nn(C)c3=O)c2cc1C [5-098]
herbicidal effect on green foxtail (G) [4]: 0 (Herbicidal rate of 5% or less (almost no effect)) | herbicidal effect on windgrass (L) [5]: 0 (Herbicidal rate of 5% or less (almost no effect)) | Herbicidal effect, B: Japanese bulrush [6]: 0 (Herbicidal rate of 5% or less (almost no effect)) | herbicidal effect on barnyard grass (H) [7]: 0 (Herbicidal rate of 5% or less (almost no effect)) | herbicidal effect on velvetleaf (M) [8]: 0 (Herbicidal rate of 5% or less (almost no effect)) | herbicidal effect on blackgrass (J) [9]: 0 (Herbicidal rate of 5% or less (almost no effect)) | herbicidal effect on persian speedwell (R) [10]: 5 (Herbicidal rate of 90% or more (almost completely withered)) | herbicidal effect on Italian ryegrass (K) [11]: 0 (Herbicidal rate of 5% or less (almost no effect)) | herbicidal effect on lambsquarters (O) [12]: 0 (Herbicidal rate of 5% or less (almost no effect)) | Herbicidal effect, C: oval-leafed pondweed [13]: 0 (Herbicidal rate of 5% or less (almost no effect)) | Herbicidal effect, A: late watergrass [14]: 3 (Herbicidal rate of 40% or more and less than 70%) | herbicidal effect on southern crabgrass (F) [15]: 0 (Herbicidal rate of 5% or less (almost no effect)) | herbicidal effect on wild oat (I) [16]: 0 (Herbicidal rate of 5% or less (almost no effect))

Cc1nn(C)c(=O)c(-c2c(-c3ccc(OC(F)(F)F)cc3)oc3ccc(F)cc23)c1O [9-033]
Herbicidal effect on E (rice flat sedge), foliage application [1, 17]: 5 (Herbicidal rate of 90% or more (almost completely withered)) | Herbicidal effect on H (barnyard grass), foliage application [2, 17]: 4 (Herbicidal rate of 70% or more and less than 90%) | Herbicidal effect on D (Chinese sprangletop), foliage application [3, 17]: 3 (Herbicidal rate of 40% or more and less than 70%) | Herbicidal effect, B: Japanese bulrush [6]: 0 (Herbicidal rate of 5% or less (almost no effect)) | Herbicidal effect, C: oval-leafed pondweed [13]: 0 (Herbicidal rate of 5% or less (almost no effect)) | Herbicidal effect, A: late watergrass [14]: 2 (Herbicidal rate of 20% or more and less than 40%)
